Assay [1] is described as follows: Bone calcium mobilization (serum calcium). Conditions: compared with 1,25-(OH)2D3, rats, four consecutive ip doses, FIG. 4. The format is in vivo, Sprague-Dawley rats. An excerpt:
FIG. 4 is a bar graph comparing the bone calcium mobilization activity of (20S/24R) 2-MD2 with that of 1,25(OH)2D3.
(§1) Male, weanling Sprague-Dawley rats were placed on Diet 11 (Suda et al. J. Nutr. 100:1049, 1970) (0.47% Ca) diet+vitamins AEK for one week followed by Diet 11 (0.02% Ca)+AEK for 3 weeks. The rats were then switched to a diet containing 0.47% Ca for one week followed by two weeks on a diet containing 0.02% Ca. Dose administration began during the last week on 0.02% calcium diet. Four consecutive ip doses were given approximately 24 hours apart. Twenty-four hours after the last dose, blood was collected from the severed neck and the concentration of serum calcium determined as a measure of bone calcium mobilization. The first 10 cm of the intestine was also collected for intestinal calcium transport analysis using the everted gut sac method.

Assay [2] deals with Human promyelocytic leukemia (HL60) cells. Kind of assay: HL-60 cell differentiation (nitro blue tetrazolium reduction). The following applies: compared with 1,25-(OH)2D3; FIG. 2. The format is cell-based. As for the experimental part:
FIG. 2 is a graph comparing the percent HL-60 cell differentiation as a function of the concentration of (20S/24R) 2-MD2 with that of 1,25(OH)2D3.
The study drugs were dissolved in ethanol and the concentrations determined using UV spectrophotometry. Serial dilutions were prepared so that a range of drug concentrations could be tested without changing the final concentration of ethanol (≦0.2%) present in the cell cultures.
Human promyelocytic leukemia (HL60) cells were grown in RPMI-1640 medium containing 10% fetal bovine serum. The cells were incubated at 37° C. in the presence of 5% CO2.
HL60 cells were plated at 1.2×10^5 cells/ml. Eighteen hours after plating, cells in duplicate were treated with drug. Four days later, the cells were harvested and a nitro blue tetrazolium reduction assay was performed (Collins et al., 1979; J. Exp. Med. 149:969-974). The percentage of differentiated cells was determined by counting a total of 200 cells and recording the number that contained intracellular black-blue formazan deposits. Verification of differentiation to monocytic cells was determined by measuring phagocytic activity (data not shown).

A short description of assay [3]: Intestinal calcium transport (everted gut sac method). The following applies: compared with 1,25-(OH)2D3, rats, four consecutive ip doses, FIG. 5. It is filed as in vivo, Sprague-Dawley rats.
Excerpt: FIG. 5 is a bar graph comparing the intestinal calcium transport activity of (20S/24R) 2-MD2 with that of 1,25(OH)2D3.
as §1

The test system of assay [4] is 24-hydroxylase (24Ohase) gene promoter in ROS 17/2.8 (bone) cells. Kind of assay: In vitro transcription assay (24-hydroxylase promoter luciferase reporter). The following applies: compared with 1,25-(OH)2D3; ROS 17/2.8 cells, 24Ohase-luciferase; FIG. 3. It is filed as cell-based. As for the experimental part:
FIG. 3 is a graph comparing the in vitro transcription activity of (20S/24R) 2-MD2 with that of 1,25(OH)2D3.
Transcription activity was measured in ROS 17/2.8 (bone) cells that were stably transfected with a 24-hydroxylase (24Ohase) gene promoter upstream of a luciferase reporter gene (Arbour et al., 1998). Cells were given a range of doses. Sixteen hours after dosing the cells were harvested and luciferase activities were measured using a luminometer. RLU=relative luciferase units.
(Reporter assays use an easily measured gene product as a stand-in for the process of interest.)

The target of assay [5] is T1, full-length recombinant rat vitamin D receptor (Rattus norvegicus, UniProt P13053).
T1 construct: Full-length recombinant rat receptor was expressed in E. coli BL21(DE3) Codon Plus RIL cells; histidine tag (C); made in house; host or cells: E. coli BL21(DE3) Codon Plus RIL
T1 sequence (P13053 1-423): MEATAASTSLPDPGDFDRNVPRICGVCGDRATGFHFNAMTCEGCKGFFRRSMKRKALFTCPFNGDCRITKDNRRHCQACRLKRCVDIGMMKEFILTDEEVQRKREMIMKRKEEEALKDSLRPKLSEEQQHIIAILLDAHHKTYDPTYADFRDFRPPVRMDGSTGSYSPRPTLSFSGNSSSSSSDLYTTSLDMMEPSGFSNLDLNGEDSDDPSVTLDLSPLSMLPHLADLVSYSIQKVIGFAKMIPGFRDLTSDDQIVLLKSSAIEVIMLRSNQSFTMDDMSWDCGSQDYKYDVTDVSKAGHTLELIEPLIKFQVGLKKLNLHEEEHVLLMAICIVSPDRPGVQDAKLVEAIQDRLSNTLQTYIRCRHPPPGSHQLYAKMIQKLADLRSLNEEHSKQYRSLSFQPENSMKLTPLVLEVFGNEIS
Kind of assay: Vitamin D receptor competitive binding with [3H]-1,25-(OH)2-D3. Conditions: compared with native hormone 1,25(OH)2D3; FIG. 1. An excerpt: FIG. 1 is a graph comparing the relative activity of (20S/24R) 2-MD2 and 1,25(OH)2D3 to compete for binding with [^3H]-1,25-(OH)2-D3 to the full-length recombinant rat vitamin D receptor.
Full-length recombinant rat receptor was expressed in E. coli BL21(DE3) Codon Plus RIL cells and purified to homogeneity using two different column chromatography systems. The first system was a nickel affinity resin that utilizes the C-terminal histidine tag on this protein. The protein that was eluted from this resin was further purified using ion exchange chromatography (S-Sepharose Fast Flow). Aliquots of the purified protein were quick frozen in liquid nitrogen and stored at −80° C. until use. For use in binding assays, the protein was diluted in TEDK50 (50 mM Tris, 1.5 mM EDTA, pH 7.4, 5 mM DTT, 150 mM KCl) with 0.1% Chaps detergent. […]
Unlabeled ligands were dissolved in ethanol and the concentrations determined using UV spectrophotometry (1,25(OH)2D3: molar extinction coefficient=18,200 and λmax=265 nm; Analogs: molar extinction coefficient=42,000 and λmax=252 nm). […]
Radiolabeled and unlabeled ligands were added to 100 mcl of the diluted protein at a final ethanol concentration of ≦10%, mixed and incubated overnight on ice to reach binding equilibrium. […] Total binding was determined from the tubes containing only radiolabeled ligand.

In the case of `C=C1[C@H](O)CC(=C/C=C2\CCC[C@]3(C)C([C@@H](C)/C=C/[C@@H](C)C(C)(C)O)CC[C@@H]23)C[C@H]1O` (stereo in doubt) [2-methylene-19-nor-(20S-24epi)-1α,25-dihydroxyvitamin D2], in assay [1], the “bone calcium mobilizing activity” value was “more bone calcium mobilizing activity than 1,25-(OH)2D3”. Also, the “inducing differentiation of HL-60 cells” value in assay [2] was “more activity than 1,25-(OH)2D3”. In assay [3], the “intestinal calcium transport activity” value is recorded as “approximately equal to 1,25-(OH)2D3”. Moreover, the causing transcription entry in assay [4] is reported as “more effective than 1,25-(OH)2D3”. Further, the “binding to the vitamin D receptor” value in assay [5] is reported as “almost equal to the native hormone”.
